Laboratory results from patent US10310377B2, “Material for forming film for lithography, composition for forming film for lithography, film for lithography, pattern forming method and purification method” (Mitsubishi Gas Chemical Company, Inc., priority 2014, dated 2019).

Key:
[1] = Thermogravimetric measurement (TG), 15% thermal weight loss temperature; type: physicochemical
[2] = Solubility in PGME, PGMEA, CPN and CHN at 23° C.
Procedure: Herein, the solubility in PGME and/or PGMEA, and/or CPN, and/or CHN is defined as “Mass of resin/(Mass of resin+Mass of solvent)×100 (% by mass)”.
The amount of each compound dissolved in 1-methoxy-2-propanol (PGME), propylene glycol monomethyl ether acetate (PGMEA), cyclopentanone (CPN), and cyclohexanone (CHN) was measured at 23° C., and the results were evaluated according to the following criteria.
Evaluation A: 10% by mass or more
Evaluation B: less than 10% by mass

[3] = cyclopentanone and cyclohexanone
[4] = 1-methoxy-2-propanol and propylene glycol monomethyl ether acetate

| Molecule | 15% thermal weight loss temperature [1] [°C] | solubility in CPN and CHN [2, 3] [% by mass] | solubility in CPN and CHN (Evaluation) [2, 3] | solubility in PGME and PGMEA [2, 4] [% by mass] | solubility in PGME and PGMEA (Evaluation) [2, 4] |
| --- | --- | --- | --- | --- | --- |
| c1ccc2c(c1)c1ccccc1c1c3ccccc3c3ccccc3c21 [DBC, dibenzo[g,p]chrysene] | ≥ 400 | ≥ 10 | A (10% by mass or more) | – | – |
| tetraallyloxydibenzochrysene [TAODBC] | – | – | – | ≥ 10 | A (10% by mass or more) |
